Assay results from patent US20180180626A1, “A METHOD FOR DEVELOPMENT OF RECOMBINANT PROTEINS WITH FINGERPRINT LIKE SIMILARITY TO THE REFERENCE PRODUCT” (STC Biologics, Inc., priority 2014, published 2018).

How the values were obtained:
α-mannosidase I = assay: 2AB glycan analysis of trastuzumab biosimilar isolated from CHO cells treated with kifunensine (KFI), with FTI; type: cell-based, Chinese Hamster; conditions: treated on Day 7; tested about 0.001 ng/ml-100 ng/ml
Description: Chromatography by HPLC or UPLC is another powerful method to analyze recombinant proteins. For example, glycan species can he quantitated using a fluorescent 2AB labeling method. In this method, glycans are first removed from the protein by digestion with N-glycanase and then a fluorescent label is added to each glycan. The glycans can then be resolved using HILIC based chromatography and quantitated by measuring relative area under the curve. For oxidation quantitation an HIC based method can be used. To obtain a recipe for production of a biosimilar with a similar glycosylation pattern to the original Herceptin®, CHO cells engineered to express the recombinant protein with an amino acid sequence identical to trastuzumab were first grown in the growth media without any inhibitors to establish a baseline. The glycan Species were analyzed using 2AB glycan method. It was observed that Peak 2 (G0) and Peak 6 (G1), and Peak 7 (mannose-5 and G1′) modifications were lower for the biosimilar than their target profile. G0, G1 and G1′ modifications are non-fucosylated modifications and are controlled by a host protein called fucosyl transferase and the mannose-5 modification is controlled by the host protein known as α-mannosidase 1. Fucosyl transferase can be inhibited by a variety of fucosyltransferase inhibitors shown in FIG. 2, α-mannosidase 1 can be inhibited by kifunensine. […]

fucosyl transferase = assay: 2AB glycan analysis of trastuzumab biosimilar isolated from CHO cells treated with 2F-Peracetyl-Fucose (FTI); type: cell-based, Chinese Hamster
Description: Chromatography by HPLC or UPLC is another powerful method to analyze recombinant proteins. For example, glycan species can he quantitated using a fluorescent 2AB labeling method. In this method, glycans are first removed from the protein by digestion with N-glycanase and then a fluorescent label is added to each glycan. The glycans can then be resolved using HILIC based chromatography and quantitated by measuring relative area under the curve. For oxidation quantitation an HIC based method can be used.
To obtain a recipe for production of a biosimilar with a similar glycosylation pattern to the original Herceptin®, CHO cells engineered to express the recombinant protein with an amino acid sequence identical to trastuzumab were first grown in the growth media without any inhibitors to establish a baseline. The glycan Species were analyzed using 2AB glycan method. It was observed that Peak 2 (G0) and Peak 6 (G1), and Peak 7 (mannose-5 and G1′) modifications were lower for the biosimilar than their target profile.
G0, G1 and G1′ modifications are non-fucosylated modifications and are controlled by a host protein called fucosyl transferase and the mannose-5 modification is controlled by the host protein known as α-mannosidase 1. Fucosyl transferase can be inhibited by a variety of fucosyltransferase inhibitors shown in FIG. 2, α-mannosidase 1 can be inhibited by kifunensine.
Briefly to obtain trastuzumab with modifications in the target range, cells were placed in growth media and treated with 2F-Peracetyl-Fucose (FTI) on day 7 at different concentrations (20 μM. 10 μM, 5 μM, 1 μM, 0.1 μM) to identify optimal drug concentration. On day 12 cells were harvested and the trastuzumab biosimilar isolated. […] FTI concentrations used to reach target profile are cell specific so it is expected that different concentrations of the FTI or other modulators would be required when a starting cell line is different from the one described in this example.
Different treatment methods such as Method 2 can be used to obtain target profile. For example, FTI can be added on a daily basis starting on day 5 (Table 3, Method 2) rather than on Day 7.

[1] = Method 2 - […]-[…] FTI every day starting at day 5

For `O=C1N[C@@H]2[C@@H](O)[C@@H](O)[C@H](O)[C@@H](CO)N2C1=O` [kifunensine], the “ideal concentration for optimization of the mannose species” value (α-mannosidase I) was 1 to 10 ng/mL.
With `CC(=O)OC1O[C@@H](C)[C@@H](OC(C)=O)[C@@H](OC(C)=O)[C@@H]1F` (some centres unmarked) [FTI, 2F-Peracetyl-Fucose] the “G0, G1 and G1′ levels versus target PTM range” value (fucosyl transferase; 10 μM FTI on day 7, harvest day 12) was “matched the target PTM range”, the “G0, G1 and G1′ levels versus target PTM range” value (fucosyl transferase; 20 μM FTI on day 7, harvest day 12) was “increase of G0, G1 and G1′ PTMs above that of target PTMs” and the “modifications versus target range” value (fucosyl transferase; FTI at concentrations lower than 8 μM) was “outside the target range”. The “Glycan Species Peak 2-G0” value (fucosyl transferase; Method 1 - 10 μM FTI - Day 7) was 4%, the “Glycan Species Peak 3” value (fucosyl transferase; Method 1 - 10 μM FTI - Day 7) was 1.5% and the “Glycan Species Peak 4-G0F” value (fucosyl transferase; Method 1 - 10 μM FTI - Day 7) was 44%. For the same compound, the “Glycan Species Peak 5” value (fucosyl transferase; Method 1 - 10 μM FTI - Day 7) was 0.8%, the “Glycan Species Peak 6-G1” value (fucosyl transferase; Method 1 - 10 μM FTI - Day 7) was 1.8% and the “Glycan Species Peak 7- G1F/mannose 5” value (fucosyl transferase; Method 1 - 10 μM FTI - Day 7) was 1.2%. The “Glycan Species Peak 8- (1,6)G1F” value (fucosyl transferase; Method 1 - 10 μM FTI - Day 7) was 26%, the “Glycan Species Peak 9 (1,3)G1F” value (fucosyl transferase; Method 1 - 10 μM FTI - Day 7) was 11% and the “Glycan Species Peak 10 G2F” value (fucosyl transferase; Method 1 - 10 μM FTI - Day 7) was 6.5%. The “Glycan Species Peak 11” value (fucosyl transferase; Method 1 - 10 μM FTI - Day 7) was 0.2%, the “Glycan Species Peak 12” value (fucosyl transferase; Method 1 - 10 μM FTI - Day 7) was 0.25% and the “Glycan Species Peak 13” value (fucosyl transferase; Method 1 - 10 μM FTI - Day 7) was 0.2%. The “Glycan Species Peak 14” value (fucosyl transferase; Method 1 - 10 μM FTI - Day 7) was 0.2%, the “Glycan Species Peak 15” value (fucosyl transferase; Method 1 - 10 μM FTI - Day 7) was 0.2% and the “Glycan Species Peak 1” value (fucosyl transferase; Method 1 - 10 μM FTI - Day 7, trastuzumab biosimilar, harvest day 12) was 1.5%. For the same compound, the “Glycan Species Peak 4-G0F” value (fucosyl transferase; [1]) was 44%, the “Glycan Species Peak 8- (1,6)G1F” value (fucosyl transferase; [1]) was 26% and the “Glycan Species Peak 9 (1,3)G1F” value (fucosyl transferase; [1]) was 11%. The “Glycan Species Peak 10 G2F” value (fucosyl transferase; [1]) was 6.5%.
